Reference: patent US11524960B2, “Heterobicyclic inhibitors of MAT2A and methods of use for treating cancer” (AGIOS PHARMACEUTICALS, INC., priority 2018, dated 2022)
Read-outs that look alike come from different tables or passages of the source.

Key:
HCT116 MTAP−/− = assay: Inhibition of cellular proliferation (Cell Titer Glo), HCT116 MTAP−/−; type: cell-based, human; settings: 4 days, IC50 score, read-out: 4 Day Relative Growth Inhibition (MTAP −/−; Example 277)
Method in brief: (§1)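 Proliferation was read as ATP luminescence (Cell Titer Glo) after a 4-day, 37 °C exposure of HCT116 cells differing only in MTAP deletion status. Dosing was 10 points, 3-fold steps, added 24 h post-plating; signal minus blank, relative to 0.2% DMSO control wells, was plotted against log molar concentration.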

HCT116 MTAP+/+ = assay: Inhibition of cellular proliferation (Cell Titer Glo), HCT116 MTAP+/+; type: cell-based, human; settings: 4 days, IC50 score, read-out: 4 Day Relative Growth Inhibition (MTAP +/+; Example 277)
Method in brief: as §1

[1] = system: SAM in HCT116 human colon carcinoma cell line engineered to delete the MTAP gene (MTAP −/−); assay: Cellular assay of target engagement (SAM) by LC-MS/MS; type: cell-based; settings: IC50 score, read-out: Cell 72 h SAM Inhibition (MTAP −/−; Example 276)
Method in brief: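 Intracellular SAM, the MAT2A product, was measured by quantitative LC-MS/MS against a d3-SAM standard in methanol/acetic acid extracts. Extracts came from HCT116 MTAP −/− cells exposed for 72 h at 37 °C to a ten-point, threefold dilution series of compound, added one day after seeding.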

MAT2A homodimer = molecular target: T1, MAT2A homodimer (Homo sapiens, UniProt P31153); assay: Biochemical assay: inhibition of MAT2A (phosphate release, PiColorLock Gold); settings: MAT2A IC50 score; read-out: Enzyme Inhibition (Example 275)
T1 construct: inferred from Ni sepharose purification and imidazole elution; made in house; host or cells: Sf9 insect cells, recombinant baculovirus (Bac to Bac, pFASTBAC1)
Method in brief: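 Phosphate formed alongside SAM was read with PiColorLock Gold and quantified against a potassium phosphate standard curve. Reactions ran 60 min at 25 °C after adding a substrate mix of 500 μM ATP and 400 μM L-methionine (mix concentrations). Compound had first been preincubated 60 min with recombinant Sf9-derived MAT2A homodimer ([…]) in pH 8.0 Tris buffer containing MgCl2, KCl, EDTA and BSA.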

T1 sequence (P31153 whole entry): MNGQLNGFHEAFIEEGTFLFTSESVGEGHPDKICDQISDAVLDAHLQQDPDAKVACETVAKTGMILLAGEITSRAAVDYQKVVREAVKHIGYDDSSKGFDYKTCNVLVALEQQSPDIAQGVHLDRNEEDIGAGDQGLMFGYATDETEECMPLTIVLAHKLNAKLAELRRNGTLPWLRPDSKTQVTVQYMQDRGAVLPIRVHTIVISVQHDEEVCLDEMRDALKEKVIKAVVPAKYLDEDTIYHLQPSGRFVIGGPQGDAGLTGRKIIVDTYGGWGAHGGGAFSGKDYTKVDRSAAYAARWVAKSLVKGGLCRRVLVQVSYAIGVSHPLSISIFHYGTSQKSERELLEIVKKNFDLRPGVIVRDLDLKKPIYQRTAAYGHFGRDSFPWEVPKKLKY

Compound	IC50 (HCT116 MTAP−/−; Homo sapiens, HCT-116, 96 h)	IC50 (HCT116 MTAP+/+; Homo sapiens, HCT-116, 96 h)	IC50 ([1]; Homo sapiens, HCT-116, 72 h)	IC50 (MAT2A homodimer)	IC50 (HCT116 MTAP−/−)	IC50 (HCT116 MTAP+/+)	IC50 ([1]; 72 h)
Cn1cnc2ccc(-n3cc4cnc(NCC(F)(F)F)nc4c(-c4ccc(Cl)cc4)c3=O)cc21 [Example 135, 8-(4-chlorophenyl)-6-(1-methyl-1H-benzo[d]imidazol-6-yl)-2-(2,2,2-trifluoroethylamino)pyrido[4,3-d]pyrimidin-7(6H)-one]	< 100 nM	100 to 10000 nM	< 100 nM	< 100 nM			
Cn1cnc2ccc(-n3cc4ccc(OCC(F)(F)F)nc4c(-c4ccc(OC(F)(F)F)nc4)c3=O)cc21 [Example 112-A]	< 100 nM	100 to 10000 nM	< 100 nM	< 100 nM			
Cn1cc2cc(-n3cc4ccc(OCC5CC5)nc4c(-c4ccc(Cl)cc4)c3=O)ccc2n1 [Example 233, 8-(4-chlorophenyl)-2-(cyclopropylmethoxy)-6-(2-methyl-2H-indazol-5-yl)-1,6-naphthyridin-7(6H)-one]	< 100 nM	> 10000 nM	< 100 nM	< 100 nM			
Cn1cnc2ccc(-n3cc4ccc(NCC(F)(F)F)nc4c(-c4ccc(OC(F)F)cc4)c3=O)cc21 [Example 240, 8-(4-(difluoromethoxy)phenyl)-6-(1-methyl-1H-benzo[d]imidazol-6-yl)-2-(2,2,2-trifluoroethylamino)-1,6-naphthyridin-7(6H)-one]	< 100 nM	> 10000 nM	< 100 nM	< 100 nM			
O=c1c(-c2ccc(Cl)cc2)c2nc(NCC(F)(F)F)ncc2cn1-c1ccc2ncccc2c1 [Example 139, 8-(4-chlorophenyl)-6-(quinolin-6-yl)-2-((2,2,2-trifluoroethyl)amino)pyrido[4,3-d]pyrimidin-7(6)-one]	100 to 10000 nM	> 10000 nM	< 100 nM	< 100 nM			
O=c1c(-c2ccc(OC(F)F)cc2)c2nc(NCC(F)(F)F)ncc2cn1-c1ccc2ncccc2c1 [Example 159, 8-(4-(difluoromethoxy)phenyl)-6-(quinolin-6-yl)-2-((2,2,2-trifluoroethyl)amino)pyrido[4,3-d]pyrimidin-7(6H)-one]	< 100 nM	100 to 10000 nM	< 100 nM	< 100 nM			
CCOc1ccc2cn(-c3ccc(=O)n(CCS(C)(=O)=O)c3)c(=O)c(-c3ccc(OC(F)F)cc3)c2n1 [Example 249, 8-(4-(difluoromethoxy)phenyl)-2-ethoxy-6-(1-(2-(methylsulfonyl)ethyl)-6-oxo-1,6-dihydropyridin-3-yl)-1,6-naphthyridin-7(6H)-one]	100 to 10000 nM	100 to 10000 nM	< 100 nM	< 100 nM			
CCOc1ccc2cn(-c3ccc(=O)n(CCS(C)(=O)=O)c3)c(=O)c(-c3ccc(OC(F)F)cc3)c2n1 [Example 107-A]				< 100 nM	< 100 nM	100 to 10000 nM	< 100 nM
Cn1cc2cc(-n3cc4ccc(NCC(F)(F)F)nc4c(-c4ccc(OC(F)F)cc4)c3=O)ccc2n1 [Example 239, 8-(4-(difluoromethoxy)phenyl)-6-(2-methyl-2H-indazol-5-yl)-2-(2,2,2-trifluoroethylamino)-1,6-naphthyridin-7(6H)-one]	< 100 nM	100 to 10000 nM	< 100 nM	< 100 nM			
Cn1cc2cc(-n3cc4ccc(OCC(F)(F)F)nc4c(-c4ccc(C(F)(F)F)nc4)c3=O)ccc2n1 [Example 124-A]	100 to 10000 nM	100 to 10000 nM	< 100 nM	< 100 nM			
O=c1c(-c2ccc(OC(F)F)cc2)c2nc(NCC(F)(F)F)ncc2cn1-c1ccc2ncsc2c1 [Example 156, 6-(benzo[d]thiazol-6-yl)-8-(4-(difluoromethoxy)phenyl)-2-((2,2,2-trifluoroethyl)amino)pyrido[4,3-d]pyrimidin-7(6H)-one]	< 100 nM	> 10000 nM	< 100 nM	< 100 nM			
CCOc1ccc2cn(-c3ccc4ncn(C)c4c3)c(=O)c(-c3ccc(C4CC4)nc3)c2n1 [Example 228, 8-(6-cyclopropylpyridin-3-yl)-2-ethoxy-6-(1-methyl-1H-benzo[d]imidazol-6-yl)-1,6-naphthyridin-7(6H)-one]	< 100 nM	100 to 10000 nM	< 100 nM	< 100 nM			
CCOc1ccc2cn(-c3ccc(OC)cc3)c(=O)c(-c3ccc(OC(F)F)cc3)c2n1 [Example 250, 8-(4-(difluoromethoxy)phenyl)-2-ethoxy-6-(4-methoxyphenyl)-1,6-naphthyridin-7(6H)-one]	< 100 nM	100 to 10000 nM	< 100 nM	< 100 nM			
O=c1c(-c2ccc(Cl)cc2)c2nc(NCC(F)(F)F)ncc2cn1-c1ccc2ncn(C3CC3)c2c1 [Example 127, 8-(4-chlorophenyl)-6-(1-cyclopropyl-1H-benzo[d]imidazol-6-yl)-2-(2,2,2-trifluoroethylamino)pyrido[4,3-d]pyrimidin-7(6H)-one]	< 100 nM	> 10000 nM	< 100 nM	< 100 nM			
O=c1c(-c2ccc(-c3cc[nH]n3)cc2)c2nc(NCC(F)(F)F)ncc2cn1-c1ccc2ncccc2c1 [Example 203, 8-(4-(H-pyrazol-3-yl)phenyl)-6-(quinolin-6-yl)-2-((2,2,2-trifluoroethyl)amino)pyrido[4,3-d]pyrimidin-7(6H)-one]	> 10000 nM	> 10000 nM	100 to 1000 nM	< 100 nM			
COc1ccc(-n2cc3cnc(NCC(F)(F)F)nc3c(-c3ccc(OC(F)F)cc3)c2=O)cc1 [Example 195, 8-(4-(difluoromethoxy)phenyl)-6-(4-methoxyphenyl)-2-((2,2,2-trifluoroethyl)amino)pyrido[4,3-d]pyrimidin-7(6H)-one]	< 100 nM	> 10000 nM	< 100 nM	< 100 nM			
CCOc1ccc2cn(-c3ccc4ncncc4c3)c(=O)c(-c3ccc(Cl)cc3)c2n1 [Example 246, 8-(4-chlorophenyl)-2-ethoxy-6-(quinazolin-6-yl)-1,6-naphthyridin-7(6H)-one]	100 to 10000 nM	100 to 10000 nM	100 to 1000 nM	< 100 nM			
CCOc1ccc2cn(-c3ccc(OC)cc3)c(=O)c(-c3ccc(OC(F)(F)F)nc3)c2n1 [Example 121-A]	100 to 10000 nM	100 to 10000 nM	< 100 nM	< 100 nM			
CCOc1ccc2cn(-c3ccc4nn(C)cc4c3)c(=O)c(-c3ccc(Br)cc3)c2n1 [Example 109-A]	< 100 nM	100 to 10000 nM	< 100 nM	< 100 nM			
COc1ccc(-n2cc3ccc(OCC(F)(F)F)nc3c(-c3ccc(OC(F)F)cc3)c2=O)cc1 [Example 258, 8-(4-(difluoromethoxy)phenyl)-6-(4-methoxyphenyl)-2-(2,2,2-trifluoroethoxy)-1,6-naphthyridin-7(6H)-one]	100 to 10000 nM	100 to 10000 nM	< 100 nM	< 100 nM			
